The source of these data is ChEMBL document CHEMBL3091290, “2-(2-Phenylmorpholin-4-yl)pyrimidin-4(3H)-ones; a new class of potent, selective and orally active glycogen synthase kinase-3β inhibitors” (Bioorg Med Chem Lett, 2013).

Series [1] relates to Liver microsome. Briefly: Intrinsic clearance in human liver microsomes. The class given is ADME.
Series [2] addresses Cytochrome P450 3A4 (Homo sapiens, UniProt P08684). Briefly: Inhibition of recombinant human CYP3A4. The class given is ADME.
Series [3] addresses Glycogen synthase kinase-3 beta (Homo sapiens, UniProt P49841). Briefly: Inhibition of human recombinant GSK-3beta using prephosphorylated GS1 peptide and [gamma-32P]ATP as substrate after 1 hr by liquid scintillation spectrometry.
In series [4] the target is T1, Cytochrome P450 1A2 (Homo sapiens, UniProt P05177).
T1 sequence (P05177 whole entry): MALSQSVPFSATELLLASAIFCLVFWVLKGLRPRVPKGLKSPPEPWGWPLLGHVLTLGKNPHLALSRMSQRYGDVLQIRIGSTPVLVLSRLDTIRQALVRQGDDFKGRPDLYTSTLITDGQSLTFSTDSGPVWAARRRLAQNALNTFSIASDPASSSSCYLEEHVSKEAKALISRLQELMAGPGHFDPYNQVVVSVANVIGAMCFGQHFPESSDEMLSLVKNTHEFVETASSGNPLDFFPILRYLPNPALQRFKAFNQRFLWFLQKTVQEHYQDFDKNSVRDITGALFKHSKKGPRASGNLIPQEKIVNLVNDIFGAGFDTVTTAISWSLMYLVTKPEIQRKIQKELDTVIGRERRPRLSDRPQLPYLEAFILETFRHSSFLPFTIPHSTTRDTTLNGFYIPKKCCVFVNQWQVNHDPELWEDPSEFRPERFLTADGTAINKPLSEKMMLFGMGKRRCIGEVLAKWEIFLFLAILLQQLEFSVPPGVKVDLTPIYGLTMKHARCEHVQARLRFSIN
Briefly: Inhibition of recombinant human CYP1A2. The class given is ADME.

The target of series [5] is Cytochrome P450 2D6 (Homo sapiens, UniProt P10635). Briefly: Inhibition of recombinant human CYP2D6. Format: ADME.
Cytochrome P450 2D6, sequence (P10635 whole entry): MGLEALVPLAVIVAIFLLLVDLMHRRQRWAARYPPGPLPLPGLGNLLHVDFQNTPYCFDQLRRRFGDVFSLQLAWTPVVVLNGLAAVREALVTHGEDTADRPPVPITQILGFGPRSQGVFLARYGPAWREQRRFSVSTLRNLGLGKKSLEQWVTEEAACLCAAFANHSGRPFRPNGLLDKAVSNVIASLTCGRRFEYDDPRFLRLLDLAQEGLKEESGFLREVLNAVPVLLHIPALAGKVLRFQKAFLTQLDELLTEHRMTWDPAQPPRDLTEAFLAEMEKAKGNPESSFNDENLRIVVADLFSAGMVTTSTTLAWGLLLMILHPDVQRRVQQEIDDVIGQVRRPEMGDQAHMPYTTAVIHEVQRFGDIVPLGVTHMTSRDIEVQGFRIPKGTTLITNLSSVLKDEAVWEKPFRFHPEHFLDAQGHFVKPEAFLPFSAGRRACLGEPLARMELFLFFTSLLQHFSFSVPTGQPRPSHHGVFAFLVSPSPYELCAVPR
Series [6] is described as follows: Permeability of the compound across human Caco2 cells. The class given is ADME, cell-based. The following applies: Caco-2, read-out: permeability.
Series [7] has as its system MDR1 (P-glycoprotein). Nature of the series: Permeability efflux ratio in MDR1 expressing pig LLC cells. The class given is ADME, cell-based, Sus scrofa. The following applies: LLC-PK1.
Series [8] can be described thus: Total clearance in Sprague-Dawley rat at 1 mg/kg, iv. Format: ADME, organism-based. Further details: dose 1 mg/kg, route intravenous. The following applies: in vivo.
Series [9] can be described thus: Ratio of drug level in brain (0 to infinity) to plasma (0 to infinity) in ICR mouse at 1 mg/kg, po. Format: ADME, organism-based. Further details: dose 1 mg/kg, route oral. The following applies: read-out: BPR.
The subject of series [10] is Rattus norvegicus. Nature of the series: Cmax in Sprague-Dawley rat at 10 mg/kg, po. The class given is ADME, organism-based. Also noted: dose 10 mg/kg, route oral. The following applies: in vivo.
Series [11] can be described thus: Volume of distribution at steady state in Sprague-Dawley rat at 1 mg/kg, iv. Particulars: in vivo, read-out: Vdss. Format: ADME, organism-based. Further details: dose 1 mg/kg, route intravenous.
Series [12] is described as follows: Oral bioavailability in Sprague-Dawley rat at 10 mg/kg. Format: ADME, organism-based. Particulars: in vivo.
For series [13], the target named is Casein kinase I isoform alpha (Homo sapiens, UniProt P48729). Nature of the series: Inhibition of CK1 (unknown origin).
Casein kinase I isoform alpha, sequence (P48729 whole entry, canonical isoform): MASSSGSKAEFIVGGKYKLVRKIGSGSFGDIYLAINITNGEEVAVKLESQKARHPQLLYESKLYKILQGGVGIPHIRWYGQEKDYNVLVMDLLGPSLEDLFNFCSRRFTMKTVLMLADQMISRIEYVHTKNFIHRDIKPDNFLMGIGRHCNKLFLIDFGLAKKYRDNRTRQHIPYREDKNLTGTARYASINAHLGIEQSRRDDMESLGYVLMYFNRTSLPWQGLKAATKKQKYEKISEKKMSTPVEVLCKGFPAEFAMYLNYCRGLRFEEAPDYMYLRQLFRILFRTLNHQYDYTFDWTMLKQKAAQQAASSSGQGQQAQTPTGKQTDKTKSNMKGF
A short description of series [14]: Half life in Sprague-Dawley rat at 10 mg/kg, po. Format: ADME, organism-based. Further details: dose 10 mg/kg, route oral. Particulars: in vivo.
Series [15] can be described thus: AUC (0 to infinity) in Sprague-Dawley rat at 10 mg/kg, po. The class given is ADME, organism-based. Further details: time infinity, dose 10 mg/kg, route oral. Particulars: plasma.
In series [16] the test system is Liver microsome. Briefly: Clearance in rat liver microsomes. The class given is ADME. Background: Liver microsomes are vesicles of endoplasmic reticulum, rich in cytochrome P450 enzymes.

Cytochrome P450 3A4, sequence (P08684 whole entry): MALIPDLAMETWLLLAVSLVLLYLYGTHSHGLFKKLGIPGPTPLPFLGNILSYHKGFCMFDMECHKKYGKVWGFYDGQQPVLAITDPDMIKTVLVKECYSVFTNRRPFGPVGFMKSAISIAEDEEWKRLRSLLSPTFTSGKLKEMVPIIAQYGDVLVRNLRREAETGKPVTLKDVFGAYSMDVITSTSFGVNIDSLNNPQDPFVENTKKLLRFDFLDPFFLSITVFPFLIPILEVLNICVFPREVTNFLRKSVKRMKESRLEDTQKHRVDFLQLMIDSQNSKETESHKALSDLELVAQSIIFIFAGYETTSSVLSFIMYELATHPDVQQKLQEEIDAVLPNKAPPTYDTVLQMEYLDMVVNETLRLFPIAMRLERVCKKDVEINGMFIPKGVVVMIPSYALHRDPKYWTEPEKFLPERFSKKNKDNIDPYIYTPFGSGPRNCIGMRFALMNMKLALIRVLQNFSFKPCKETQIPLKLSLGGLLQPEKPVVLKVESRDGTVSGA
Glycogen synthase kinase-3 beta, sequence (P49841 whole entry): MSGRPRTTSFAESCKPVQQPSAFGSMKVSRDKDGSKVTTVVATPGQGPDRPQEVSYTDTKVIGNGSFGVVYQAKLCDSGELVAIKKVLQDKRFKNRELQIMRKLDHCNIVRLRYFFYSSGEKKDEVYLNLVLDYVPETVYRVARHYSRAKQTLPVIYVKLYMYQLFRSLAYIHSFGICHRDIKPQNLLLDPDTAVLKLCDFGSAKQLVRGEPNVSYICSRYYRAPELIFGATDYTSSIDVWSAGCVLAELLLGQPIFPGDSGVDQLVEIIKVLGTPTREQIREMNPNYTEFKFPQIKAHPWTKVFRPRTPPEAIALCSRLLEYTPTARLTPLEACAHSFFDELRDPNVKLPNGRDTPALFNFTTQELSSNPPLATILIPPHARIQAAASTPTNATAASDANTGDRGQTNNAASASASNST

As for `COc1cccc([C@H]2CN(c3nc(-c4ccncn4)cc(=O)n3C)CCO2)c1`, the Intrinsic clearance in [1] was 130 µL/min/mg. For the same compound, the IC50 was more than 50 µM in series [2], 0.0046 µM in [3], more than 50 µM in series [4] and 26.6 µM in series [5].
Take `Cn1c(N2CCO[C@@H](c3ccc(F)cc3)C2)nc(-c2ccncc2)cc1=O`: the IC50 in series [2] is more than 50 µM; in series [3], 0.022 µM; in series [4], 17.1 µM; in series [5] it was 44.2 µM.
Take `Cn1c(N2CCO[C@H](c3ccc(F)cc3)C2)nc(-c2ccncc2)cc1=O`: the IC50 in series [3] is 0.077 µM.
As to `Cn1c(N2CCO[C@@H](c3ccc(F)cc3)C2)nc(-c2ccncc2F)cc1=O`, the half-inhibitory concentration (IC50) was more than 50 µM in series [2], 0.0074 µM in series [3], 5.5 µM in [4] and 22.1 µM in series [5].
Consider `Cn1c(N2CCO[C@@H](c3ccc(F)cc3)C2)nc(-c2ccncc2Cl)cc1=O`, for which the IC50 in series [3] was found to be 0.43 µM.
Still for that read-out and setting: the same measure for `Cc1cnccc1-c1cc(=O)n(C)c(N2CCO[C@@H](c3ccc(F)cc3)C2)n1`: 2.47 µM.
For the compound `COc1cnccc1-c1cc(=O)n(C)c(N2CCO[C@@H](c3ccc(F)cc3)C2)n1`, in series [3], the IC50 is 0.791 µM.
On to `Cn1c(N2CCO[C@@H](c3ccc(F)cc3)C2)nc(-c2ccnc(Cl)c2)cc1=O`, for which the IC50 in series [3] was found to be 0.903 µM.
Regarding `Cn1c(N2CCO[C@@H](c3ccc(F)cc3)C2)nc(-c2ccncn2)cc1=O`, the Papp in series [6] was 58.3 ×10⁻⁶ cm/s. Further, the efflux ratio in series [7] was determined as 1. This compound also had a clearance in series [8] of 48.3 mL/min/kg. In series [9], the Kp was found to be 3.1. This compound displayed an Intrinsic clearance in series [1] of 60 µL/min/mg. The same compound gave a Cmax in [10] of 221 ng/mL. Besides, the IC50 is more than 50 µM in [2]; 0.012 µM in [3]; 29.4 µM in series [4]; 1.5 µM in series [13]; 39.7 µM in series [5]. Also, in series [11], the Vd was determined as 2.4 L/kg. The compound also showed a bioavailability in series [12] of 37%. In series [14], the half-life was 1.7 h. The AUC(0-inf) in series [15] was 1300 ng·h/mL.
`Cn1c(N2CCO[C@@H](c3ccc(C#N)cc3)C2)nc(-c2ccncn2)cc1=O` showed an Intrinsic clearance in [1] of 30 µL/min/mg. In addition, the IC50 is 0.013 µM in series [3], more than 50 µM in series [4] and 4.5 µM in series [5].
Consider `COc1ccc([C@H]2CN(c3nc(-c4ccncn4)cc(=O)n3C)CCO2)cc1`, for which the Intrinsic clearance in [1] turned out to be 110 µL/min/mg. For the same compound, the figures for the IC50 in series [3], in [4] and in series [5] were 0.0029 µM, more than 50 µM and 6.9 µM, respectively.
Consider `Cn1c(N2CCO[C@@H](c3ccccc3F)C2)nc(-c2ccncn2)cc1=O`, for which, in series [1], the Intrinsic clearance worked out at 100 µL/min/mg. Moreover, the figures for the IC50 in series [3], in series [4] and in [5] were 0.0032 µM, 23.3 µM and 32.4 µM, respectively.
On the same counts, the results for `COc1ccccc1[C@H]1CN(c2nc(-c3ccncn3)cc(=O)n2C)CCO1` are 190 µL/min/mg, 0.00087 µM, 15.7 µM and 16 µM.
Taken in the same sequence, the figures for `COc1cc(F)ccc1[C@H]1CN(c2nc(-c3ccncn3)cc(=O)n2C)CCO1` were 180 µL/min/mg, 0.00047 µM, 16.5 µM and 18 µM.
On the same counts, the results for `COc1cccc(OC)c1[C@H]1CN(c2nc(-c3ccncn3)cc(=O)n2C)CCO1` are 200 µL/min/mg, 0.00023 µM, more than 50 µM and more than 50 µM.
On to `Cn1c(N2CCO[C@@H](c3ccc(C#N)cc3F)C2)nc(-c2ccncn2)cc1=O`, for which the Intrinsic clearance in series [1] was found to be 30 µL/min/mg. For the same compound, the IC50 in [3] is 0.0065 µM; in series [4], more than 50 µM; in series [5], 26.7 µM.
In series [1], `Cn1c(N2CCO[C@@H](c3c(F)cccc3Cl)C2)nc(-c2ccncn2)cc1=O` returned an Intrinsic clearance of 70 µL/min/mg. Also, the IC50 in series [3] was determined as 0.00064 µM; in [4] it was 19.5 µM; in [5], 32.3 µM.
With `Cn1c(NCC(=O)c2ccccc2)nc(-c2ccncc2)cc1=O`, the IC50 in series [2] and in [5] was more than 50 µM throughout.
For `Cn1c(N2CCOC(c3ccccc3)C2)nc(-c2ccncc2)cc1=O` (racemic), the IC50 in [2] was more than 50 µM; in series [3], 0.051 µM; in [4], 23.1 µM; in [5], 47.4 µM. In series [16], the CLH was 155 µL/min/mg.
`Cn1c(N2CCOC(c3ccc(F)cc3)C2)nc(-c2ccncc2)cc1=O` (racemic): the half-inhibitory concentration (IC50) is more than 50 µM in [2], 0.027 µM in [3], 23.9 µM in [4] and 35.8 µM in [5]. In series [16], this compound yielded a CLH of 104 µL/min/mg.

One may read the IC50 as the concentration that inhibits the measured activity by half. For orientation: efflux ratio means a quotient of directional permeabilities that is used to spot active efflux. Broadly, the clearance is the rate of elimination divided by the concentration. A higher clearance goes with efficient removal. The term Cmax denotes the highest concentration seen after dosing. As a reminder, the bioavailability is the share of a dose that reaches the circulation, judged against a reference dose that is usually intravenous. Read a low bioavailability as poor availability. Broadly, the half-life is the time in which the quantity being followed falls by half. Lower therefore signals rapid decline. For orientation: AUC(0-inf) means the area under the concentration-time curve extrapolated to infinity. The low end stands for low exposure, the high end for high exposure.
